This is an account of results in patent publication US8748388B2, “Antitumoral compounds” (Pharma Mar, S.A., priority 2008, dated 2014).

Bridge positions count the residues as written; N and C are the ends. Square brackets hold non-standard residues; d marks the D form. Peptide text beside a SMILES is read from it. I, II: the chains in the order shown. * marks the point of attachment. Quinaldoyl(3-OH) = O=C(c1nc2ccccc2cc1O)*; NMeC = CN[C@@H](CS)C(=O)O; dDap = NC[C@@H](N)C(=O)O

One data set concerns HT29. The data set can be described thus: SRB colorimetric cytotoxicity assay, HT29. In kind it is cell-based, human. The conditions noted are these: HT29, 48 hours exposure; for CC50: read-out: LC50 (the source's name). From the text:
(§1) The aim of this assay is to evaluate the in vitro cytostatic (ability to delay or arrest tumor cell growth) or cytotoxic (ability to kill tumor cells) activity of the samples being tested.
(§2) A colorimetric type of assay, using sulforhodamine B (SRB) reaction has been adapted for a quantitative measurement of cell growth and viability (following the technique described by Skehan P et al. J. Natl. Cancer Inst. 1990, 82, 1107-1112).
(§3) This form of assay employs SBS-standard 96-well cell culture microplates (Faircloth et al. Methods in cell science, 1988, 11(4), 201-205; Mosmann et al. Journal of. Immunological. Methods, 1983, 65(1-2), 55-63). All the cell lines used in this study, derived from different types of human cancer, were obtained from the American Type Culture Collection (ATCC).
(§4) Cells were maintained in Dulbecco's Modified Eagle Medium (DMEM) supplemented with 10% Fetal Bovine Serum (FBS), 2 mM L-glutamine, 100 U/mL penicillin and 100 U/mL streptomycin at 37° C., 5% CO2 and 98% humidity. For the experiments, cells were harvested from subconfluent cultures using trypsinization and resuspended in fresh medium before counting and plating.
(§5) Cells were seeded in 96 well microtiter plates at 5×10^3 cells per well in aliquots of 150 μL, and allowed to attach to the plate surface for 18 hours in drug free medium. One control (untreated) plate of each cell line was fixed (as described below) and used for time zero reference value. Afterwards, test samples were added to the cultures in ten serial dilutions, in aliquots of 50 μL, ranging from 10 to 0.00262 μg/mL. After 48 hours exposure, the antitumor effect was estimated by the SRB method: Briefly, cells were washed twice with PBS, fixed for 15 min in 1% glutaraldehyde solution, rinsed twice in PBS, and stained in 0.4% SRB solution for 30 min at room temperature. Cells were then rinsed several times with 1% acetic acid solution and air-dried. SRB was then extracted in 10 mM trizma base solution and the absorbance measured in an automated spectrophotometric plate reader at 490 nm. Cell survival was expressed as percentage of control cell growth. The final effect of the sample being tested was estimated by applying the NCl algorithm (Boyd M R and Paull K D. Drug Dev. Res. 1995, 34, 91-104).
(§6) Using the mean±SD of triplicate cultures, a dose-response curve was automatically generated using nonlinear regression analysis. Three reference parameters were calculated (NCl algorithm) by automatic interpolation: GI50=concentration that produces 50% growth inhibition; TGI=total growth inhibition (cytostatic effect) and LC50=concentration that produces 50% net cell killing (cytotoxic effect).

The subject of another data set is A549. Nature of the data set: SRB colorimetric cytotoxicity assay, A549. The data set is classed as cell-based, human. The settings on record: A549, 48 hours exposure; for CC50: read-out: LC50 (the source's name).
Description: as §1, §2, §3, §4, §5, §6

In the next data set the test system is MDA-MB-231. Nature of the data set: SRB colorimetric cytotoxicity assay, MDA-MB-231. The settings on record: MDA-MB-231, 48 hours exposure; for CC50: read-out: LC50 (the source's name). In kind it is cell-based, human.
Description: as §1, §2, §3, §4, §5, §6

The subject of another data set is leukemia cell line L1210. The settings on record: Boger and Lee 2000; cited from earlier work.

For the compound `CSC[C@H]1C(=O)N(C)C[C@@H](NC(=O)c2nc3ccccc3cc2O)C(=O)NCC(=O)N(C)[C@H]2CSSC[C@@H](C(=O)N1C)N(C)C(=O)CNC(=O)[C@H](NC(=O)c1nc3ccccc3cc1O)CN(C)C(=O)[C@H](CSC)N(C)C2=O` [Compound 2, {[3-HQA-D-Dap(Me&^1)-Gly-NMeCys(&^2)—NMe-Cys(Me)&^3][3-HQA-D-Dap(Me&^3)-Gly-NMeCys(&^2)—NMe-Cys(Me)&^1]], the GI50 – broadly, the concentration at which growth is held to half of that of the control – in the data set on HT29 was found to be 20.8 nM; in the data set with A549 it was 3.39 nM; in the data set with MDA-MB-231, 4.08 nM. Besides, the results for the TGI in the data set with HT29, with A549 and in the data set with MDA-MB-231 were 1.13E−07 Molar, 2.00E−08 Molar and 4.26E−08 Molar, respectively. Besides, the CC50 amounted to 747 nM with HT29, 165 nM with A549 and 373 nM with MDA-MB-231.

Regarding Azatriostin A, the “cytotoxic activity compared with Triostin A” value in the data set with leukemia cell line L1210 was “two orders of magnitude less active”.

For the compound `CSC[C@H]1C(=O)NC[C@@H](NC(=O)c2nc3ccccc3cc2O)C(=O)NCC(=O)N(C)[C@H]2CSSC[C@@H](C(=O)N1C)N(C)C(=O)CNC(=O)[C@H](NC(=O)c1nc3ccccc3cc1O)CNC(=O)[C@H](CSC)N(C)C2=O` [Azathiocoraline] (I: {Quinaldoyl(3-OH)}-[dDap]G[NMeC][NMeC](Me) / II: {Quinaldoyl(3-OH)}-[dDap]G[NMeC][NMeC](Me); amide I:1-II:C, I:C-II:1; disulfide I:3-II:3), in the data set with HT29, the concentration for 50% growth inhibition (GI50) turned out to be 3120 nM, the TGI was over 8.90E−06 Molar and the CC50 was over 8900 nM. For the same compound, in the data set with A549, the GI50 came out at 3740 nM, the TGI was over 8.90E−06 Molar and the CC50 is over 8900 nM. Also, in the data set with MDA-MB-231, the GI50 was 2140 nM, the TGI is over 8.90E−06 Molar and the CC50 was over 8900 nM.
